Experiments:
Settings in all cases: human, microsomes
[1] = (§1) Fraction of total metabolites recovered as M4; format: ADME, Liver, Microsome
[2] = as §1; format: ADME, Small intestine, Microsome
[3] = (§2) Fraction of total metabolites recovered as M10; format: ADME, Liver, Microsome
[4] = as §2; format: ADME, Small intestine, Microsome

| Compound recovery [1] [%] | Compound recovery [2] [%] | Compound recovery [3] [%] | Compound recovery [4] [%] | Compound |
| --- | --- | --- | --- | --- |
| 21 | 21 |  |  | CC(C)(C)NC(=O)[C@@H]1C[C@@H]2C[C@@H](O)CC[C@@H]2CN1C[C@@H](O)[C@H](Cc1ccccc1)NC(=O)[C@H](CC(N)=O)NC(=O)c1ccc2ccccc2n1 |
|  |  | 6 | 6 | CC(C)(CO)NC(=O)[C@@H]1C[C@@H]2CCCC[C@@H]2CN1C[C@@H](O)[C@H](Cc1ccccc1)NC(=O)[C@H](CC(N)=O)NC(=O)c1ccc2ccccc2n1 |

From ChEMBL document CHEMBL3706492, “CYP3A4-mediated hepatic metabolism of the HIV-1 protease inhibitor saquinavir in vitro” (Xenobiotica, 2002)
